The text below walks through data of patent US11638707B2, “Substituted amino triazoles useful as chitinase inhibitors” (Molecure S.A., priority 2019, dated 2023).

One may read the IC50 as the concentration that inhibits the measured activity by half.

In one data set the target is recombinant human CHIT1 (Homo sapiens (Human), UniProt Q13231). Description: Human CHIT1 activity assay. The format is biochemical. The following applies: recombinant human CHIT1, citrate buffer pH 5.2, 37° C., 60 minutes; read-out: hCHIT1, IC50. How it is done: (§1) The assay was run in the 96-well plate format, each reaction in the total volume of 100 μL. 4-methylumbelliferyl β-D-N,N′,N″-triacetylchitotriose was used as a substrate for the enzyme. Upon hydrolysis by CHIT1, the substrate releases 4-methylumbelliferyl (4MU) that, when ionized in basic pH, emits fluorescence at 460 nm. Briefly, 40 μL of a substrate was added to each well, followed by 10 μL of compound dilution and 50 μL of CHIT1 recombinant enzyme solution. The reaction was carried out in citrate buffer, pH 5.2, in the dark, at 37° C. for 60 minutes with shaking. […] The IC50 values were calculated using GraphPad Prism.
Sequence of recombinant human CHIT1 (Q13231 22-466): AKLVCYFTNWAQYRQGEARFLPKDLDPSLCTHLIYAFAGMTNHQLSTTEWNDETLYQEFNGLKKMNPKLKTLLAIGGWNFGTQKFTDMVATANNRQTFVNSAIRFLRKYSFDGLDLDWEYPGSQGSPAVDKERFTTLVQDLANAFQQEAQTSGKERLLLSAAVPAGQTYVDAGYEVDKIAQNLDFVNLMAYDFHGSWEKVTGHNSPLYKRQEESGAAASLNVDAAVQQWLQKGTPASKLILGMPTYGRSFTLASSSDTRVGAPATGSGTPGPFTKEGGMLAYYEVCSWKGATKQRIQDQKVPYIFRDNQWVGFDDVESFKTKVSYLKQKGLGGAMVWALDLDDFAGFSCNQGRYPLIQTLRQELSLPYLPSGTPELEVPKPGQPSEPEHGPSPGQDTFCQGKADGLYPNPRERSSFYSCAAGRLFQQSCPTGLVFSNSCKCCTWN

For the next data set, the target named is recombinant human AMCase (Homo sapiens (Human), UniProt Q9BZP6). Briefly: Human AMCase activity assay. The format is biochemical. The conditions noted are these: citrate buffer pH 5.2, 37° C., 60 minutes, read-out: hAMCase, IC50. The method, then:
as §1, with “4-Methylumbelliferyl B-D-N,N′-diacetylchitobioside hydrate” for “4-methylumbelliferyl β-D-N,N′,N″-triacetylchitotriose”, “AMCase,” for “CHIT1,”, “hAMCase” for “CHIT1”

A further data set concerns the target hERG channel (Homo sapiens (Human), UniProt Q12809). Briefly: Human ERG channel binding assay (fluorescence polarization). The conditions noted are these: tracer displacement, 4 h at room temperature. How it is done: Human ERG Channel Binding Assay
Fluorescence polarization assay based on the principle of fluorescence polarization where a red-shifted fluorescent tracer is displaced from the hERG channel by compounds that bind to the channel was used to establish the binding of the compounds to hERG channel. […] Briefly, the compounds in serial dilutions were incubated with a membrane fraction containing hERG channel protein and a high-affinity red fluorescent hERG channel ligand in black 384-well plate. […] The IC50 values were calculated using GraphPad Prism.

Structures can show the parent of a compound that is named as a salt.

Sequence of hERG channel (Q12809 whole entry): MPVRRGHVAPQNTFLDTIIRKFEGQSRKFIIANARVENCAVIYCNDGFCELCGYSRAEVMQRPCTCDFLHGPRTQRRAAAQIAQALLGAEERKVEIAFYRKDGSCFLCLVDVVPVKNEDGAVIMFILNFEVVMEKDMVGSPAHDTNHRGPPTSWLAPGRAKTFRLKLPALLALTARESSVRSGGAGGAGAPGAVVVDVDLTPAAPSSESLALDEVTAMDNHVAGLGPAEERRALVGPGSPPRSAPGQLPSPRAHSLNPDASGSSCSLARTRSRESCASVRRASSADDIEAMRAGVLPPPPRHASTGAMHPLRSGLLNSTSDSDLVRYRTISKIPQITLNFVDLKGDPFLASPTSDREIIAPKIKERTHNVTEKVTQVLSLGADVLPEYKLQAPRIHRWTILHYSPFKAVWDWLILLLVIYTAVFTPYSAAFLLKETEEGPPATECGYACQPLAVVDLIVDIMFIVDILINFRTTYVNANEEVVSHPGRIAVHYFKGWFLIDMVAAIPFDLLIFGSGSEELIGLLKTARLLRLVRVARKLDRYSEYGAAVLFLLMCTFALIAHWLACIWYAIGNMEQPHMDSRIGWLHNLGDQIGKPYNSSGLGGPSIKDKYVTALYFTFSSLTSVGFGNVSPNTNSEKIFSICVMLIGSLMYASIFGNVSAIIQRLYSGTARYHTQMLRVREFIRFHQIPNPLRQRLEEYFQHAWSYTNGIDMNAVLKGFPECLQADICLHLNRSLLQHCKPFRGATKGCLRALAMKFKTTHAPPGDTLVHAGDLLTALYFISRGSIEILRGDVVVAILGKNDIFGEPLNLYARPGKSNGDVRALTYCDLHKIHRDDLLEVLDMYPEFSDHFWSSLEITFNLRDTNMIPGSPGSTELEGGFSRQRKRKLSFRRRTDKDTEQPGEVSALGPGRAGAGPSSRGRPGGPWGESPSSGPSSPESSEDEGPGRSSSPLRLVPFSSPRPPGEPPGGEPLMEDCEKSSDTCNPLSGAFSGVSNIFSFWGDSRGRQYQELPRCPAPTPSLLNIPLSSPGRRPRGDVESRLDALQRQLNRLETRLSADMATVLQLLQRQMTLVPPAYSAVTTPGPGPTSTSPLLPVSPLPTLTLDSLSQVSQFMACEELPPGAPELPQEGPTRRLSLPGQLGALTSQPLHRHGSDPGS
Sequence of recombinant human AMCase (Q9BZP6 22-476): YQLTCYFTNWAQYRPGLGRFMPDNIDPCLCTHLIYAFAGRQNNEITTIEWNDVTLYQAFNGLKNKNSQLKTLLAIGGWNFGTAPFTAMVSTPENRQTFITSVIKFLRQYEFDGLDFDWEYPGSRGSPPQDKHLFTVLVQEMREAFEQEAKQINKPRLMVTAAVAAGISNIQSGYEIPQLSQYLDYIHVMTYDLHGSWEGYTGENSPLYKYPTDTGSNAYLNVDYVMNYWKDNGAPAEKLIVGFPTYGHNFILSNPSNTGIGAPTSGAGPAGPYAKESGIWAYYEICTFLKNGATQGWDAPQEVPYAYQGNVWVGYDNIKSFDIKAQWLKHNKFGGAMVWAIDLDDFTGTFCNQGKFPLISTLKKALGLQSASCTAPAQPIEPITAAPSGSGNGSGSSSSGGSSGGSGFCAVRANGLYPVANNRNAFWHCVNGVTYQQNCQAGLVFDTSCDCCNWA

Take `CC(F)[C@H]1CN(C2CCN(c3nnc(N)[nH]3)CC2)[C@@H](Cc2ccc(Cl)cc2)CO1` (relative stereo) [Example 20, 5-(4-((2R,5S)-5-(4-chlorobenzyl)-2-(1-fluoroethyl)morpholino)piperidin-1-yl)-4H-1,2,4-triazol-3-amine 2,2,2-trifluoroacetate]: the IC50 at recombinant human CHIT1 is less than 100 nM; on recombinant human AMCase, less than 100 nM; on hERG channel (Table 1) it was greater than 100 µM.

For the molecule `C[C@@H]([C@H]1CN(C2CCN(c3nnc(N)[nH]3)CC2)[C@@H](Cc2ccc(Cl)cc2)CO1)n1cccn1` [Example 18, 5-(4-((2R,5S)-2-((S)-1-(1H-pyrazol-1-yl)ethyl)-5-(4-chlorobenzyl)morpholino)-piperidin-1-yl)-4H-1,2,4-triazol-3-amine 2,2,2-trifluoroacetate], the half-maximal inhibitory concentration (IC50) on recombinant human CHIT1 and on recombinant human AMCase was less than 100 nM in each case.

For `C[C@H]([C@H]1CN(C2CCN(c3nnc(N)[nH]3)CC2)[C@@H](Cc2ccc(Cl)cc2)CO1)n1cccn1` [Example 19, 5-(4-((2R,5S)-2-((R)-1-(1H-pyrazol-1-yl)ethyl)-5-(4-chlorobenzyl)morpholino)-piperidin-1-yl)-4H-1,2,4-triazol-3-amine 2,2,2-trifluoroacetate], the half-maximal inhibitory concentration (IC50) at recombinant human CHIT1 and at recombinant human AMCase was less than 100 nM in each case.

For `Nc1nnc(N2CCC(N3C[C@H](CN4CCCCC4=O)OC[C@@H]3Cc3ccc(Cl)cc3)CC2)[nH]1` [Example 35, 1-(((2R,5S)-4-(1-(5-amino-4H-1,2,4-triazol-3-yl)piperidin-4-yl)-5-(4-chlorobenzyl)-morpholin-2-yl)methyl)piperidin-2-one 2,2,2-trifluoroacetate], the IC50 at recombinant human CHIT1 and on recombinant human AMCase was less than 100 nM in each case.

As for `Nc1nnc(N2CCC(N3C[C@H](CN4CCC(F)(F)CC4)OC[C@@H]3Cc3ccc(Cl)cc3)CC2)[nH]1` [Example 38, 5-(4-((2S,5S)-5-(4-chlorobenzyl)-2-((4,4-difluoropiperidin-1-yl)methyl)-morpholino)piperidin-1-yl)-4H-1,2,4-triazol-3-amine 2,2,2-trifluoroacetate], the IC50 at recombinant human CHIT1 and at recombinant human AMCase was less than 100 nM in each case.

Take `Nc1nnc(N2CCC(N3C[C@H](COC(F)F)OC[C@@H]3Cc3ccc(Cl)cc3)CC2)[nH]1` [Example 40, 5-(4-((2R,5S)-5-(4-chlorobenzyl)-2-((difluoromethoxy)methyl)morpholino)-piperidin-1-yl)-4H-1,2,4-triazol-3-amine 2,2,2-trifluoroacetate]: the IC50 on recombinant human CHIT1 and at recombinant human AMCase was less than 100 nM throughout.

Turning to `CC(F)(F)[C@H]1CN(C2CCN(c3nnc(N)[nH]3)CC2)[C@@H](Cc2ccc(Cl)cc2)CO1` [Example 42, 5-(4-((2R,5S)-5-(4-chlorobenzyl)-2-(1,1-difluoroethyl)morpholino)piperidin-1-yl)-4H-1,2,4-triazol-3-amine dihydrochloride], the IC50 at recombinant human CHIT1 and on recombinant human AMCase was less than 100 nM each time.

For the molecule `Nc1nnc(N2CCC(N3C[C@H](COCC(F)F)OC[C@@H]3Cc3ccc(Cl)cc3)CC2)[nH]1` [Example 43, 5-(4-((2R,5S)-5-(4-chlorobenzyl)-2-((2,2-difluoroethoxy)methyl)morpholino)-piperidin-1-yl)-4H-1,2,4-triazol-3-amine 2,2,2-trifluoroacetate], the half-maximal inhibitory concentration (IC50) at recombinant human CHIT1 and at recombinant human AMCase was less than 100 nM in each case.

Turning to `Nc1nnc(N2CCC(N3CC(F)(F)C[C@@H]3Cc3ccc(Cl)cc3)CC2)[nH]1` [Example 56, (S)-5-(4-(2-(4-chlorobenzyl)-4,4-difluoropyrrolidin-1-yl)piperidin-1-yl)-4H-1,2,4-triazol-3-amine dihydrochloride], the half-maximal inhibitory concentration (IC50) on recombinant human CHIT1 was less than 100 nM.

Turning to `CC1(O)CCN(C2CCN(c3nnc(N)[nH]3)CC2)[C@@H](Cc2ccc(Cl)cc2)C1` (stereo partly drawn) [Example 59, (2S)-1′-(5-amino-4H-1,2,4-triazol-3-yl)-2-(4-chlorobenzyl)-4-methyl-[1,4′-bipiperidin]-4-ol 2,2,2-trifluoroacetate], the figures for the 50% inhibitory concentration (IC50) at recombinant human CHIT1 and on hERG channel (Table 1) were 1000 to 10000 nM and 25 to 100 µM, respectively.

Take `Nc1nnc(N2CCC(N3C[C@H](O)CC[C@@H]3Cc3ccc(Cl)cc3)CC2)[nH]1` [Example 70, (3R,6R)-1′-(5-amino-4H-1,2,4-triazol-3-yl)-6-(4-chlorobenzyl)-[1,4′-bipiperidin]-3-ol 2,2,2-trifluoroacetate]: the half-inhibitory concentration (IC50) at recombinant human CHIT1 and at recombinant human AMCase was less than 100 nM in each case.

As for `CO[C@@H]1CC[C@H](Cc2ccc(Cl)cc2)N(C2CCN(c3nnc(N)[nH]3)CC2)C1` [Example 71, 5-((2R,5R)-2-(4-chlorobenzyl)-5-methoxy-[1,4′-bipiperidin]-1′-yl)-4H-1,2,4-triazol-3-amine 2,2,2-trifluoroacetate], the 50% inhibitory concentration (IC50) on recombinant human CHIT1 was in the range of 100 to 1000 nM; on hERG channel (Table 1) it was 25 to 100 µM.

`Nc1nnc(N2CCC(N3CC4CC4C[C@@H]3Cc3ccc(Cl)cc3)CC2)[nH]1` (stereo partly drawn) [Example 72, 5-(4-((4R)-4-(4-chlorobenzyl)-3-azabicyclo[4.1.0]heptan-3-yl)piperidin-1-yl)-4H-1,2,4-triazol-3-amine 2,2,2-trifluoroacetate]: the concentration for half-maximal inhibition (IC50) on recombinant human CHIT1 is 100 to 1000 nM; on recombinant human AMCase it was less than 100 nM.

`Nc1nnc(N2CCC(N3Cc4cncn4C[C@@H]3Cc3ccc(C(F)(F)F)cc3)CC2)[nH]1` [Example 77, (S)-5-(4-(6-(4-(trifluoromethyl)benzyl)-5,6-dihydroimidazo[1,5-a]pyrazin-7(8H)-yl)piperidin-1-yl)-4H-1,2,4-triazol-3-amine 2,2,2-trifluoroacetate]: the IC50 on recombinant human CHIT1 was 1000 to 10000 nM.

With `Nc1nnc(N2CCC(N3CCOC[C@@H]3Cc3ccc(Cl)cc3)CC2)[nH]1` [Example C1, reference compound], the IC50 on hERG channel (Table 2, comparative examples) fell in the range of 10 to 25 µM.

At hERG channel (Table 2, comparative examples), `CC(C)C[C@H]1CN(C2CCN(c3nnc(N)[nH]3)CC2)[C@@H](Cc2ccc(Cl)cc2)CO1` [Example C2, reference compound] yielded a half-maximal inhibitory concentration (IC50) of 1 to 10 µM.

On to `COC(C)(C)[C@H]1CN(C2CCN(c3nnc(N)[nH]3)CC2)[C@@H](Cc2ccc(Cl)cc2)CO1` [Example C3, reference compound], for which the half-maximal inhibitory concentration (IC50) on hERG channel (Table 2, comparative examples) lay within 10 to 25 µM.

At hERG channel (Table 2, comparative examples), `Nc1nnc(N2CCC(N3CCCC[C@@H]3Cc3ccc(Cl)cc3)CC2)[nH]1` [Example C4, reference compound] returned an IC50 of 1 to 10 µM.

On to `CO[C@H]1CN(C2CCN(c3nnc(N)[nH]3)CC2)[C@H]1Cc1ccc(Cl)cc1` [Example C6, reference compound], for which, on hERG channel (Table 2, comparative examples), the half-maximal inhibitory concentration (IC50) is less than 1 µM.

`Nc1nnc(N2CCC(N3CCC[C@@H]3Cc3ccc(Cl)cc3)CC2)[nH]1` [Example C7, reference compound] gave a 50% inhibitory concentration (IC50) at hERG channel (Table 2, comparative examples) of 1 to 10 µM.

On to `C[C@H]1CN(C2CCN(c3nnc(N)[nH]3)CC2)[C@@H](Cc2ccc(Cl)cc2)CN1C` [Example C8, reference compound], for which the IC50 at hERG channel (Table 2, comparative examples) lay in the range of 1 to 10 µM.

At hERG channel (Table 2, comparative examples), `CC(C)CN1CCN(C2CCN(c3nnc(N)[nH]3)CC2)[C@@H](Cc2ccc(Cl)cc2)C1` [Example C9, reference compound] returned a half-inhibitory concentration (IC50) of 1 to 10 µM.

The molecule `CN1C[C@H](Cc2ccc(Cl)cc2)N(C2CCN(c3nnc(N)[nH]3)CC2)C[C@@H]1Cc1ccc(Cl)cc1` [Example C10, reference compound] gave an IC50 on hERG channel (Table 2, comparative examples) of less than 1 µM.

As for `CN1C[C@H](Cc2ccc(Cl)cc2)N(C2CCN(c3nnc(N)[nH]3)CC2)C[C@@H]1CC1CCCCC1` [Example C11, reference compound], the concentration for half-maximal inhibition (IC50) on hERG channel (Table 2, comparative examples) is less than 1 µM.

On hERG channel (Table 2, comparative examples), `CC(C)C[C@H]1CN(C2CCN(c3nnc(N)[nH]3)CC2)[C@@H](Cc2ccc(Cl)cc2)CN1C` [Example C12, reference compound] gave a concentration for half-maximal inhibition (IC50) of less than 1 µM.

In turn, `Nc1nnc(N2CCC(N3C[C@@H](O)C[C@@H]3Cc3ccc(Cl)cc3)CC2)[nH]1` [Example C14, reference compound] came in with an IC50 at hERG channel (Table 2, comparative examples) of 10 to 25 µM.

For `Nc1nnc(N2CCC(N3C[C@@H]4CCCN4C[C@@H]3Cc3ccc(Cl)cc3)CC2)[nH]1` [Example C15, reference compound], the half-maximal inhibitory concentration (IC50) at hERG channel (Table 2, comparative examples) was in the range of 1 to 10 µM.

On hERG channel (Table 2, comparative examples), `CN1C[C@H](Cc2ccc(Cl)cc2)N(C2CCN(c3nnc(N)[nH]3)CC2)Cc2ccccc21` [Example C17, reference compound] yielded an IC50 of 1 to 10 µM.

Consider `CN1C[C@H](Cc2ccc(Cl)cc2)N(C2CCN(c3nnc(N)[nH]3)CC2)Cc2cc(Cl)ccc21` [Example C18, reference compound], for which the half-inhibitory concentration (IC50) at hERG channel (Table 2, comparative examples) is less than 1 µM.

For the molecule `Nc1nnc(N2CCC(N3Cc4cc(Cl)ccc4OC[C@@H]3Cc3ccc(Cl)cc3)CC2)[nH]1` [Example C20, reference compound], the half-inhibitory concentration (IC50) at hERG channel (Table 2, comparative examples) is 1 to 10 µM.

In turn, `Nc1nnc(N2CCC(N3Cc4cc(Cl)cc(Cl)c4OC[C@@H]3Cc3ccc(Cl)cc3)CC2)[nH]1` [Example C21, reference compound] returned an IC50 at hERG channel (Table 2, comparative examples) of 1 to 10 µM.
